Measurements reported in publication PMC12196235, “Enhancing the Pharmacological Properties of Triterpenes Through Acetylation: An Anticancer and Antioxidant Perspective” (Molecules, 2025).
Values joined by “and” are separate entries in the source; they are usually repeats but may differ in a detail not shown here. Equal entries are not always repeated. Where two headings read alike, the source gives them in different places.

Key:
[1] = tested on: MDA MB-231 (human epithelial adenocarcinoma); design: method as in doi:10.1002/slct.201803101; details: ref 56; read-out: anticancer IC50 (MDA MB-231); cited from earlier work
[2] = tested on: A-549 (human lung carcinoma); details: MTT assay, data published earlier, read-out: IC50 (±SD), A-549; cited from earlier work
[3] = tested on: KB (human oral squamous carcinoma); test: MTT assay, KB; type: cell-based; details: IC50 HDF / IC50 KB
Protocol: (§1) All the cell lines and mediums were obtained from the American Type Culture Collection (ATCC) supplied by LGC-Standards (Lomianki, Poland). Human cancer cell lines were cultured as follows: HeLa (human cervix carcinoma) and KB (human oral squamous carcinoma) lines were cultured in DMEM (Dulbecco’s Modified Eagle’s Medium); MCF-7 (human breast carcinoma) and A-549 (human lung carcinoma) were cultured in RPMI 1640 medium; PC-3 (human prostate carcinoma) was cultured in F-12K medium; SKOV-3 (human ovarian cystadenocarcinoma) was cultured in McCoy’s modified medium; HDF (human normal dermal fibroblasts) was cultured in Fibroblast Basal Medium. Each medium was supplemented with 10% fetal bovine serum, 1% L- glutamine and 1% penicillin/streptomycin solution. The cell lines were kept in an incubator at 37 °C.
(§2) All the tested cell lines (HeLa, KB, MCF-7, A-549, PC-3, SKOV-3 and HDF) were subjected to MTT assay. In short, this assay is based on the reaction between mitochondria enzymes (dehydrogenases) of tested cell lines and 3-(4,5-dimethylthiazol-2-yl)-2,5-diphenyltetrazolium bromide (MTT). The final product of this reaction gives violet formazan crystals. The number of live cells is proportional to the amount of formazan and is represented by the violet dye reagent. The details of the experiments are given in [19].

[4] = tested on: KB (human oral squamous carcinoma); details: MTT assay, data published earlier; cited from earlier work
[5] = tested on: MCF-7 (human breast carcinoma); test: MTT assay, MCF-7; type: cell-based; details: IC50 HDF / IC50 MCF-7
Protocol: as §1, §2

[6] = tested on: PC-3 (human prostate carcinoma); test: MTT assay, PC-3; type: cell-based
Protocol: as §1, §2

[7] = tested on: HDF (human dermal fibroblasts); test: MTT assay, normal HDF; type: cell-based; details: Homo sapiens, Fibroblast, read-out: IC50 (±SD), HDF
Protocol: as §1, §2

[8] = CUPRAC antioxidant assay; details: calculated from Trolox standard curve
Protocol: The results are presented as % inhibition of the copper(II) ions and Trolox equivalent calculated from the standard curve (Figure 9) and as % inhibition of the DPPH radical and Trolox equivalent, calculated from the standard curve (Figure 10).
The CUPRAC reagent (7.5 mM ethanolic 96% neocuproine solution, 10 mM CuCl2 × H2O solution and an ammonium acetate buffer of pH 7.0) and DPPH reagent (2,2-diphenyl-1-picrylhydrazyl 0.2 mM solution) were applied.
The CUPRAC method measures the reducing power of a sample by quantifying its ability to convert the Cu-neocuproine reagent complex to the Cu(I) form. In contrast, the DPPH assay relies on the ability of an antioxidant to donate a hydrogen atom or an electron to the stable DPPH radical, resulting in its reduction and subsequent color change. The results are presented as % inhibition of the copper(II) ions and Trolox equivalent calculated from the standard curve (Figure 9) and as % inhibition of the DPPH radical and Trolox equivalent, calculated from the standard curve (Figure 10). The spectroscopic detection in CUPRAC and DPPH assays was conducted with Synergy H1 Multi-Mode Microplate Reader (BioTek Instruments, Inc., Winooski, VT, USA). The details of the experiments are given in [102].

[9] = tested on: HeLa (human cervical epithelioid carcinoma); details: ref 56; read-out: anticancer IC50 (HeLa); cited from earlier work
[10] = tested on: SKOV-3 (human ovarian carcinoma); test: MTT assay, SKOV-3; type: cell-based
Protocol: as §1, §2

[11] = tested on: MCF-7 (human breast carcinoma); details: MTT assay, data published earlier, read-out: IC50 (±SD), MCF-7; cited from earlier work
[12] = tested on: MCF-7 (human breast carcinoma); details: ref 55; read-out: anticancer IC50 (MCF-7); cited from earlier work
[13] = tested on: A-549 (human lung carcinoma); test: MTT assay, A-549; type: cell-based; details: IC50 HDF / IC50 A-549
Protocol: as §1, §2

[14] = tested on: A-549 (human lung carcinoma); details: ref 56; read-out: anticancer IC50 (A-549); cited from earlier work
[15] = tested on: HeLa (human cervical epithelioid carcinoma); test: MTT assay, HeLa; type: cell-based; details: IC50 HDF / IC50 HeLa
Protocol: as §1, §2

[16] = tested on: HeLa (human cervical epithelioid carcinoma); details: MTT assay, data published earlier, read-out: IC50 (±SD), HeLa; cited from earlier work

In the case of C=C(C)[C@@H]1CC[C@]2(C)CC[C@]3(C)[C@H](CC[C@@H]4[C@@]5(C)CC[C@H](O)C(C)(C)[C@@H]5CC[C@]43C)[C@@H]12 [6a, lupeol], the IC50 [1] is given as 46.1 µM, the IC50 [2] is given as 45.7 µM and the “Selectivity index (SI), KB” value [3] is given as 0.57. For the same compound, the IC50 [4] was 51.2 µM, the “Selectivity index (SI), MCF-7” value [5] was 0.56 and the IC50 ([6]; Homo sapiens, MTT assay, PC-3, read-out: IC50 (±SD), PC-3) was 14.5 µM. For the same compound, the “Selectivity index (SI), PC-3” value ([6]; IC50 HDF / IC50 PC-3) was 2.00, the IC50 [7] was 29 µM and the “Trolox Equivalent, CUPRAC Assay” value [8] was 0.136 mg/mL and 0.136 ± 0.00593 mg/mL. For the same compound, the IC50 [9] was 31.9 µM, the IC50 ([10]; Homo sapiens, SK-OV-3, MTT assay, SKOV-3, read-out: IC50 (±SD), SKOV-3) was 14.6 µM and the “Selectivity index (SI), SKOV-3” value ([10]; IC50 HDF / IC50 SKOV-3) was 1.99. For the same compound, the IC50 [11] was 51.8 µM, the IC50 [12] was 80 µM and the “Selectivity index (SI), A-549” value [13] was 0.63. The IC50 [14] was 64.8 µM, the “Selectivity index (SI), HeLa” value [15] was 0.77 and the IC50 [16] was 37.7 µM.
